Measurements as given in patent publication US10342786B2, “P38 kinase inhibitors reduce DUX4 and downstream gene expression for the treatment of FSHD” (Fulcrum Therapeutics, Inc., priority 2017, dated 2019).

Test system: ZSCAN4, TRIM43, LEUTX, KHDC1L
Assay: DUX4-regulated downstream genes by real time PCR in FSHD myotubes
Format: cell-based, human
Details: 1 μM ASO; FSHD myotubes vs DMSO
Method: For qPCR, dilute 1:10 and use 2 μL for a 10 μL 1-step RT-qPCR reaction. For detection of GAPDH, RPLPO, TBP, MYOG, FRG1, MYH3, ACTN2, etc.). Per 10 μL reaction: RNA (1:10 dilution lysate) 2 μL, Fast Advanced Taqman Master Mix (2×) 5 μL, RT enzyme mix (40×) 0.25 μL, Taqman probe set (20×) 0.5 μL, H2O 2.25 μL. The following reaction protocol was run on the QuantStudio 7: 48° C. for 15 min, 50° C. for 2 min, 95° C. for 30 sec, 40×, 95° C. for 5 sec, 60° C. for 30 sec, then plates were read as specified by the manufacturer (Thermo). For 1-step RT-Preamplification used for detection of DUX4 downstream genes, i.e. MBD3L2, ZSCAN4, LEUTX, TRIM43, KHDC1L. POL2RA-VIC was used as Endogenous control). Per 10 μL reaction: RNA (1:10 dilution lysate) 2.25 μL, Taqman Pre-Amp Master Mix (2×) 5 μL, RT enzyme mix (40×) 0.25 μL, Taqman probe set (0.2×)*2.5 μL, * Pooling the TaqMan Assays: equal volumes of each 20× TaqMan® Gene Expression Assay, up to 100 assays were combined. For example, to pool 50 TaqMan assays, 10 μL of each assay were combined in a microcentrifuge tube. The pooled TaqMan assays were diluted using 1×TE buffer so that each assay is at a final concentration of 0.2×. For the above example, add 500 μL of 1×TE buffer to the pooled TaqMan assays for a total final volume of 1 mL. The QuantStudio7 protocol was used 48° C. 15 min, 95° C. 10 min, 10 cycles: 95° C. 15 sec, 60° C. 4 min, 4° C. infinite. Samples were then diluted to 50 μL and continue with the qPCR step. Per 10 μL reaction: Preamp dilution 2 μL, Fast Advanced Taqman Master Mix (2×) 5 μL, Taqman probe set (20×) 0.5 μL, H2O 2.5 μL. When multiplexing the volume was adjusted to 10 μL total). The following program was run on the QuantStudio7: 50° C. for 2 min, 95° C. for 30 sec, 40×, 95° C. for 5 sec, 60° C. for 30 sec, plates were read as per the manufacturers specifications (Thermo).
Wild type myotubes were treated with DMSO control vehicle, and mature patient-derived FSHD myotubes that express DUX4 protein were treated with DMSO vehicle control or 1 μM of a DUX4 sequence-directed antisense oligonucleotide (ASO; FTX-2) purchased from Exiqon. After treatment, the myotubes were lysed in 19.5 μL of Roche Real Time Ready Lysis Buffer, 0.25 μL of DNAsel (Ambion, AM2222), 0.25 μL of Protector RNase Inhibitor (Roche, 3335402001), and the RNA was collected in an RNeasy Micro Kit Master Mix. Expression levels of DUX4-regulated downstream genes (ZSCAN4, TRIM43, MBD3L2, LEUTX, and KHDC1L) was determined by real time PCR (ThermoFisher Scientific, 4484262), ZSCAN4 Taqman Assay (ThermoFisher Scientific, Hs00537549 ml, FAM-MGB), MYOG Taqman Assay (ThermoFisher Scientific, Hs01072232_ml, JUN-QSY), RPLPO Taqman Assay (ThermoFisher Scientific, Hs99999902_ml), and/or LEUTX Taqman Assay (ThermoFisher Scientific, Hs00418470_ml). […]

FTX-2: DUX4 sequence-directed antisense oligonucleotide purchased from Exiqon, CAGCGTCGGAAGGTGG (SEQ ID NO: 1) (listed as DNA, chemistry not given here)
reduced amounts: KHDC1L expression | LEUTX expression | TRIM43 expression | ZSCAN4 expression
